pIC50: −log10 of the molar value. Activity calls are given as the source filed them. The rule behind the calls is not given here.
Columns and labels:
Type in all cases: functional, cell-based
MDA-MB-468 = test: Cytotoxicity against human MDA-MB-468 cells assessed as growth inhibition after 48 hrs by methylene blue staining-based assay; settings: MDA-MB-468, 48 h
MCF7 = test: Cytotoxicity against human MCF7 cells assessed as growth inhibition after 48 hrs by methylene blue staining-based assay; settings: MCF7, 48 h
BT-474 = test: Cytotoxicity against human BT474 cells assessed as growth inhibition after 48 hrs by methylene blue staining-based assay; settings: BT-474, 48 h
MDA-MB-231 = test: Cytotoxicity against human MDA-MB-231 cells assessed as growth inhibition after 48 hrs by methylene blue staining-based assay; settings: for pIC50: MDA-MB-231, 48 h
T47D = test: Cytotoxicity against human T47D cells assessed as growth inhibition after 48 hrs by methylene blue staining-based assay

Row | SMILES | pIC50 (MDA-MB-468) | pIC50 (MCF7) | pIC50 (BT-474) | pIC50 (MDA-MB-231) | pIC50 (T47D) | Activity (MDA-MB-231)
1 | COc1cc2c(cc1OC)-c1c3[n+](cn1CC2)CCc1cc(OC)c(OC)cc1-3 | 5.59 | 4.46 | 5.51 | 4.72 | 4.47 | 
2 | COc1cc2c(cc1OC)C(C1=NCCc3cc(OC)c(OC)cc31)=NCC2 |  |  |  |  |  | inactive
3 | COc1cc2c(c(OC)c1OC)CCn1c[n+]3c(c1-2)-c1cc(OC)c(OC)c(OC)c1CC3 |  |  |  |  |  | inactive
4 | COc1ccc(CCNC(=O)C(=O)NCCc2ccc(OC)c(OC)c2)cc1OC |  |  |  | 4.35 |  | 
5 | COc1ccc2c(c1OC)CCn1c[n+]3c(c1-2)-c1ccc(OC)c(OC)c1CC3 | 5.68 | 5.10 | 6.15 | 4.74 | 4.87 | 
6 | COc1ccc2c(c1)CCn1c[n+]3c(c1-2)-c1ccc(OC)cc1CC3 | 5.74 | 5.89 | 6.52 | 5.41 | 6.00 | 
7 | COc1ccc2c(c1OC)C(=O)O[C@@H]2[C@H]1c2c(cc3c(c2OC)OCO3)CCN1C [NOSCAPINE] |  | 4.24 |  | 4.19 |  | 
